Peptide text beside a SMILES is read from it. * marks the point of attachment. Dansyl = CN(C)c1cccc2c(S(=O)(=O)*)cccc12
Target: T1, N-SH3 D141A (Crkl) (Homo sapiens, UniProt P46109, D141A)
T1 construct: The construct encoding the N-SH3 domain of Crkl was subcloned in a pET28b+ plasmid vector; His-tag; made in house; host or cells: E. coli BL21
Assay: Stopped-flow displacement, N-SH3 D141A:dansyl-C3G277–296 complex
Assay type: binding
Details: Hepes 50 mM pH 7.0 + 20% w/v sucrose, 10 °C
Description: To further investigate this aspect, we resorted to performing displacement experiments, targeted to the direct calculation of microscopic dissociation rate constant koff. […] To test this and to slow down the diffusion of molecules, we repeated the experiment increasing the viscosity of the solution adding 20% w/v sucrose to the buffer Hepes 50 mM pH 7.0. Although the trace was satisfactorily fitted with a single-exponential equation, the koff calculated is 800 ± 30 s^−1, a value that is far beyond the resolution capability of the stopped-flow, a consistent part of the reaction occurring in the dead time of the instrument. Based on the calculated affinity of D141A variant for C3G in the absence of sucrose, this dramatic increase in koff might be accompanied by a strong increase in kon.
Kinetic binding experiments were performed on a single-mixing SX-18 stopped-flow instrument (Applied Photophysics), by mixing a constant concentration (0.5 μM) of C3G dansylated versus increasing concentrations of N-SH3 at 10 °C. Ionic strength dependence of wt N-SH3 was performed with concentrations ranging from 1 to 5 µM for 0 M NaCl condition and from 0.5 to 5 µM for 0.15 M, 0.3 M, 0.5 M and 1 M NaCl, buffer Hepes 50 mM pH 7.0. The excitation wavelength was 280 nm, and fluorescence was collected using a 455 nm cut-off filter. […]

T1 sequence (P46109 123-183 D141A limits assumed): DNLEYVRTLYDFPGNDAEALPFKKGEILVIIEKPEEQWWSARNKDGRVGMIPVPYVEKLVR

A koff of 800 ± 30 s⁻¹ was found for `CC(C)C[C@H](NC(=O)[C@H](C)NC(=O)[C@@H]1CCCN1C(=O)[C@@H]1CCCN1C(=O)[C@@H]1CCCN1C(=O)[C@H](CO)NC(=O)[C@H](CC(N)=O)NC(=O)[C@H](CC(=O)O)NC(=O)[C@@H](NC(=O)[C@@H](NS(=O)(=O)c1cccc2c(N(C)C)cccc12)C(C)C)C(C)C)C(=O)N1CCC[C@H]1C(=O)N1CCC[C@H]1C(=O)N[C@@H](CCCCN)C(=O)N[C@@H](CCCCN)C(=O)N[C@@H](CCCNC(=N)N)C(=O)N[C@@H](CCC(N)=O)C(=O)N[C@@H](CO)C(=O)N[C@@H](C)C(=O)N1CCC[C@H]1C(=O)N[C@@H](CO)C(=O)O` [dansyl-C3G277–296] (Dansyl-VVDNSPPPALPPKKRQSAPS-OH) in this work.

From PMC8705818, “Experimental Characterization of the Interaction between the N-Terminal SH3 Domain of Crkl and C3G” (International Journal of Molecular Sciences, 2021)
